According to PubChem BioAssay (NCI):
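Values below derive from 48-hour exposures of cells grown in 96-well plates, with endpoints linearly interpolated between the two concentrations bracketing the appropriate inhibition level. GI50: concentration for 50% inhibition of growth. TGI is the concentration that stops growth completely.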

What was measured:
Test in all cases: NCI tumour cell line growth inhibition, 48 h
786-0 renal = tested on: 786-0 renal
A498 renal = tested on: A498 renal
A549 NSCLC = tested on: A549 NSCLC
ACHN renal = tested on: ACHN renal
BT-549 breast = tested on: BT-549 breast
CAKI-1 renal = tested on: CAKI-1 renal
CCRF-CEM leukemia = tested on: CCRF-CEM leukemia
COLO 205 colon = tested on: COLO 205 colon
DU-145 prostate = tested on: DU-145 prostate
EKVX NSCLC = tested on: EKVX NSCLC
HCC-2998 colon = tested on: HCC-2998 colon
HCT-116 colon = tested on: HCT-116 colon
HCT-15 colon = tested on: HCT-15 colon
HOP-62 NSCLC = tested on: HOP-62 NSCLC
HOP-92 NSCLC = tested on: HOP-92 NSCLC
HS 578T breast = tested on: HS 578T breast
HT29 colon = tested on: HT29 colon
IGROV1 ovarian = tested on: IGROV1 ovarian
K-562 leukemia = tested on: K-562 leukemia
KM12 colon = tested on: KM12 colon
LOX IMVI melanoma = tested on: LOX IMVI melanoma
M14 melanoma = tested on: M14 melanoma
MALME-3M melanoma = tested on: MALME-3M melanoma
MCF7 breast = tested on: MCF7 breast
MDA-MB-231 breast = tested on: MDA-MB-231 breast
MOLT-4 leukemia = tested on: MOLT-4 leukemia
NCI-H226 lung = tested on: NCI-H226 lung
NCI-H23 lung = tested on: NCI-H23 lung
NCI-H460 lung = tested on: NCI-H460 lung
NCI-H522 lung = tested on: NCI-H522 lung
NCI/ADR-RES ovarian = tested on: NCI/ADR-RES ovarian
OVCAR-3 ovarian = tested on: OVCAR-3 ovarian
OVCAR-4 ovarian = tested on: OVCAR-4 ovarian
OVCAR-5 ovarian = tested on: OVCAR-5 ovarian
OVCAR-8 ovarian = tested on: OVCAR-8 ovarian
PC-3 prostate = tested on: PC-3 prostate
RPMI-8226 leukemia = tested on: RPMI-8226 leukemia
RXF 393 renal = tested on: RXF 393 renal
SF-268 CNS = tested on: SF-268 CNS
SF-295 CNS = tested on: SF-295 CNS
SF-539 CNS = tested on: SF-539 CNS
SK-MEL-2 melanoma = tested on: SK-MEL-2 melanoma
SK-MEL-28 melanoma = tested on: SK-MEL-28 melanoma
SK-MEL-5 melanoma = tested on: SK-MEL-5 melanoma
SK-OV-3 ovarian = tested on: SK-OV-3 ovarian
SN12C renal = tested on: SN12C renal
SNB-19 CNS = tested on: SNB-19 CNS
SNB-75 CNS = tested on: SNB-75 CNS
SR leukemia = tested on: SR leukemia
SW-620 colon = tested on: SW-620 colon
T-47D breast = tested on: T-47D breast
TK-10 renal = tested on: TK-10 renal
U251 CNS = tested on: U251 CNS
UACC-257 melanoma = tested on: UACC-257 melanoma
UACC-62 melanoma = tested on: UACC-62 melanoma
UO-31 renal = tested on: UO-31 renal

O=C(Nc1nc(-c2ccc(Cl)cc2)cs1)c1cc(-c2ccc(Br)cc2)nc2ccc(Cl)cc12
GI50 (786-0 renal): 3.53 µM
TGI (786-0 renal): 67.1 µM
GI50 (A498 renal): 30.7 µM
TGI (A498 renal): > 100 µM
GI50 (A549 NSCLC): 43.8 µM
TGI (A549 NSCLC): > 100 µM
GI50 (ACHN renal): 5.18 µM
TGI (ACHN renal): > 100 µM
GI50 (BT-549 breast): 2.47 µM
TGI (BT-549 breast): 7.89 µM
GI50 (CAKI-1 renal): 20.5 µM
TGI (CAKI-1 renal): > 100 µM
GI50 (CCRF-CEM leukemia): 4.06 µM
TGI (CCRF-CEM leukemia): > 100 µM
GI50 (COLO 205 colon): 26.9 µM
TGI (COLO 205 colon): > 100 µM
GI50 (DU-145 prostate): 3.67 µM
TGI (DU-145 prostate): > 100 µM
GI50 (EKVX NSCLC): 15.3 µM
TGI (EKVX NSCLC): > 100 µM
GI50 (HCC-2998 colon): 19.4 µM
TGI (HCC-2998 colon): > 100 µM
GI50 (HCT-116 colon): 0.876 µM
TGI (HCT-116 colon): 11.3 µM
GI50 (HCT-15 colon): 3.12 µM
TGI (HCT-15 colon): 26.6 µM
GI50 (HOP-62 NSCLC): 4.66 µM
TGI (HOP-62 NSCLC): > 100 µM
GI50 (HOP-92 NSCLC): 2.98 µM
TGI (HOP-92 NSCLC): 22.2 µM
GI50 (HS 578T breast): 2.71 µM
TGI (HS 578T breast): 18.2 µM
GI50 (HT29 colon): 3.89 µM
TGI (HT29 colon): > 100 µM
GI50 (IGROV1 ovarian): 2.7 µM
TGI (IGROV1 ovarian): > 100 µM
GI50 (K-562 leukemia): 3.36 µM
TGI (K-562 leukemia): > 100 µM
GI50 (KM12 colon): 3.35 µM
TGI (KM12 colon): 27.1 µM
GI50 (LOX IMVI melanoma): 2.77 µM
TGI (LOX IMVI melanoma): > 100 µM
GI50 (M14 melanoma): 2.16 µM
TGI (M14 melanoma): 11.2 µM
GI50 (MALME-3M melanoma): 5.59 µM
TGI (MALME-3M melanoma): 76.5 µM
GI50 (MCF7 breast): 2.62 µM
TGI (MCF7 breast): > 100 µM
GI50 (MDA-MB-231 breast): 3.02 µM
TGI (MDA-MB-231 breast): 15.3 µM
GI50 (MOLT-4 leukemia): 3.77 µM
TGI (MOLT-4 leukemia): > 100 µM
GI50 (NCI-H226 lung): 2.98 µM
TGI (NCI-H226 lung): 15.4 µM
GI50 (NCI-H23 lung): 5.64 µM
TGI (NCI-H23 lung): > 100 µM
GI50 (NCI-H460 lung): 32.7 µM
TGI (NCI-H460 lung): > 100 µM
GI50 (NCI-H522 lung): 7.87 µM
TGI (NCI-H522 lung): > 100 µM
GI50 (NCI/ADR-RES ovarian): 3.97 µM
TGI (NCI/ADR-RES ovarian): > 100 µM
GI50 (OVCAR-3 ovarian): 2.86 µM
TGI (OVCAR-3 ovarian): 9.19 µM
GI50 (OVCAR-4 ovarian): 7.1 µM
TGI (OVCAR-4 ovarian): > 100 µM
GI50 (OVCAR-5 ovarian): 28.6 µM
TGI (OVCAR-5 ovarian): > 100 µM
GI50 (OVCAR-8 ovarian): 3.94 µM
TGI (OVCAR-8 ovarian): 62.4 µM
GI50 (PC-3 prostate): 4.16 µM
TGI (PC-3 prostate): > 100 µM
GI50 (RPMI-8226 leukemia): 3.73 µM
TGI (RPMI-8226 leukemia): > 100 µM
GI50 (RXF 393 renal): 19.1 µM
TGI (RXF 393 renal): 89.7 µM
GI50 (SF-268 CNS): 3.86 µM
TGI (SF-268 CNS): 36.4 µM
GI50 (SF-295 CNS): 4.42 µM
TGI (SF-295 CNS): 58.6 µM
GI50 (SF-539 CNS): 2.78 µM
TGI (SF-539 CNS): 10.4 µM
GI50 (SK-MEL-2 melanoma): 6.69 µM
TGI (SK-MEL-2 melanoma): > 100 µM
GI50 (SK-MEL-28 melanoma): 5.62 µM
TGI (SK-MEL-28 melanoma): > 100 µM
GI50 (SK-MEL-5 melanoma): 3.28 µM
TGI (SK-MEL-5 melanoma): 13.1 µM
GI50 (SK-OV-3 ovarian): 34.2 µM
TGI (SK-OV-3 ovarian): > 100 µM
GI50 (SN12C renal): 4.78 µM
TGI (SN12C renal): 54.6 µM
GI50 (SNB-19 CNS): 5.22 µM
TGI (SNB-19 CNS): > 100 µM
GI50 (SNB-75 CNS): 3.63 µM
TGI (SNB-75 CNS): > 100 µM
GI50 (SR leukemia): 3.72 µM
TGI (SR leukemia): > 100 µM
GI50 (SW-620 colon): 4.35 µM
TGI (SW-620 colon): > 100 µM
GI50 (T-47D breast): 16.1 µM
TGI (T-47D breast): > 100 µM
GI50 (TK-10 renal): 29.2 µM
TGI (TK-10 renal): > 100 µM
GI50 (U251 CNS): 4.39 µM
TGI (U251 CNS): 37.8 µM
GI50 (UACC-257 melanoma): 24.1 µM
TGI (UACC-257 melanoma): > 100 µM
GI50 (UACC-62 melanoma): 3.49 µM
TGI (UACC-62 melanoma): 22.6 µM
GI50 (UO-31 renal): 3.45 µM
TGI (UO-31 renal): > 100 µM
